Source: patent publication US20060122181A1, “Heteroaromatic pentacyclic compound and medicinal use thereof” (Japan Tobacco Inc., priority 2003, published 2006)

First: CCC(CC)c1ccc(N(Cc2ccc(-c3csc(N(C)Cc4ccc(C(=O)O)cc4)n3)cc2)C(C)C)cc1 [Example 1-20]
Second: CCC(CC)c1ccc(N(Cc2ccc(-c3csc(CN(C)[C@@H](Cc4ccccc4)C(=O)O)n3)cc2)C(C)C)cc1 [Example 1-22]
The melting point of the first is higher: 150 to 153 °C for the first, 80 °C for the second.

First: CCC(CC)c1ccc2c(c1)nc(-c1csc(COc3ccc(C(=O)O)cc3)n1)n2Cc1ccc(C(C)=O)cc1 [Example 3-130]
Second: CCC(CC)c1ccc(COc2ccc(-c3csc(CN(CC(=O)O)C(=O)c4ccc(C)cc4)n3)cc2)cc1 [Example 3-23]
The melting point of the first is lower: 127 to 132 °C for the first, 142 to 144 °C for the second.

First: CCCC(CCC)c1ccc(OCc2ccc(-c3csc(CN(CC(=O)O)C(=O)COc4ccc(C)cc4)n3)cc2)cc1 [Example 1-130]
Second: CCCC(CCC)c1ccc(OCc2ccc(-c3csc(CN(CC(=O)O)C(=O)COc4ccc(C(C)C)cc4)n3)cc2)cc1 [Example 1-135]
The melting point of the first is lower: 170 to 172 °C for the first, 192 to 194 °C for the second.

Compared with `CCCC(CCC)c1ccc(N(Cc2ccc(-c3csc(CN(CC(=O)O)C(=O)COCc4ccccc4)n3)cc2)C(C)C)cc1` [Example 1-134], `CCCC(CCC)c1ccc(OCc2ccc(-c3csc(CN(CC(=O)O)C(=O)COc4ccccc4)n3)cc2)cc1` [Example 1-129] is lower in melting point: 158 to 160 °C for the first, 143 to 145 °C for the second.

Going from `CC(C)CN(Cc1ccc(-c2csc(CN(CC(=O)O)S(=O)(=O)c3ccccc3)n2)cc1)c1ccc(C(C)(C)C)cc1` [Example 1-31] to `CC(C)CN(Cc1ccc(-c2csc(CN(CC(=O)O)C(=O)c3ccccc3)n2)cc1)c1ccc(C(C)(C)C)cc1` [Example 1-28], the melting point falls from 168.5 °C to 147 °C.

Compared with `CCCC(CCC)c1ccc(COc2ccc(-c3csc(CN(CC(=O)O)Cc4csc(C)n4)n3)c(C)c2)cc1` [Example 3-122], `CCCC(CCC)c1ccc(COc2ccc(-c3csc(COc4cncc(C(=O)O)c4)n3)c(C)c2)cc1` [Example 3-114] is higher in melting point: 98 to 103 °C for the first, 148 to 150 °C for the second.

First: CCCC(CCC)c1ccc(CN(C)c2ccc(-c3csc(COc4cncc(C(=O)O)c4)n3)cc2)cc1 [Example 3-94]
Second: CCCC(CCC)c1ccc(CN(C)c2ccc(-c3csc(COc4ccc(C(=O)O)cc4)n3)cc2)cc1 [Example 3-95]
The melting point of the first is higher: 178 to 181 °C for the first, 175 to 177 °C for the second.

First: CCCC(CCC)c1ccc(OCc2ccc(-c3ccc(CN(CC(=O)O)Cc4cccc(C(=O)O)c4)s3)cc2)cc1 [Example 4-76]
Second: CCCC(CCC)c1ccc(OCc2ccc(-c3csc(CN(CC(=O)O)CC(=O)Nc4ccc(N(C)C)cc4)n3)cc2)cc1 [Example 1-97]
The melting point of the first is higher: 202.8 to 206.4 °C for the first, 192.5 °C for the second.

Compared with `O=C(O)c1cccc(C2CCN(Cc3nc(-c4ccc(OCc5ccc(Cl)c(Cl)c5)cc4)cs3)CC2)c1` [Example 1-173], `CCCCOc1ccc(COc2ccc(-c3csc(CN4CCC(c5cccc(C(=O)O)c5)CC4)n3)cc2)cc1` [Example 1-175] is higher in melting point: 197 to 199 °C for the first, 222 to 225 °C for the second.

First: CCCC(CCC)c1ccc(OCc2ccc(-c3csc(COc4ccc(C(=O)O)cc4)n3)cc2)cc1 [Example 1-49]
Second: CCCC(CCC)c1ccc(OCc2ccc(-c3csc(CN4Cc5ccccc5C[C@H]4C(=O)O)n3)cc2)cc1 [Example 1-46]
The melting point of the first is higher: 199 to 202 °C for the first, 77 to 82 °C for the second.

Compared with `CCCC(CCC)N(Cc1ccc(-c2csc(COc3cccc(C(=O)O)c3)n2)cc1)c1ccc(C(C)C)cc1` [Example 1-10], `CCCC(CCC)c1ccc(N(Cc2ccc(-c3csc(COc4cc(C(=O)O)ccc4NC(=O)C(C)C)n3)cc2)C(C)C)cc1` [Example 1-113] is higher in melting point: 127 to 129 °C for the first, 166 to 168 °C for the second.

First: CC(C)c1ccc(Cn2c(-c3csc(CN4CCc5ccc(C(=O)O)cc5C4)n3)nc3ccc(N4CCOCC4)cc32)cc1 [Example 1-185]
Second: CC(C)c1ccc(Cn2c(-c3csc(CN4CCN(c5cccc(C(=O)O)c5)CC4)n3)nc3ccc(N4CCOCC4)cc32)cc1 [Example 1-186]
The melting point of the first is higher: 141 to 143.2 °C for the first, 128.5 to 131.5 °C for the second.

First: CC(C)CN(Cc1ccc(-c2csc(COc3cncc(C(=O)O)c3)n2)cc1)c1ccc(C(C)C)cc1 [Example 1-8]
Second: CCC(CC)c1ccc(N(Cc2ccc(-c3csc(COc4cncc(C(=O)O)c4)c3)cc2)C(C)C)cc1 [Example 4-4]
The melting point of the first is higher: 196 to 197 °C for the first, 160 °C for the second.

First: CCCC(CCC)c1ccc(OCc2ccc(-c3csc(CN(C)S(=O)(=O)CCCC(=O)O)n3)cc2)cc1 [Example 1-51]
Second: CCCC(CCC)c1ccc(OCc2ccc(-c3csc(CN(C)[C@@H](Cc4ccccc4)C(=O)O)n3)cc2)cc1 [Example 1-42]
The melting point of the first is lower: 103.3 to 106.3 °C for the first, 114 to 118 °C for the second.

Compared with `CCCC(CCC)c1ccc(N(Cc2ccc3nc(-c4csc(COc5cncc(C(=O)O)c5)n4)oc3c2)C(C)C)cc1` [Example 1-140], `CCC(CC)c1ccc(N(Cc2ccc(-c3csc(COc4cc(C(=O)O)ccc4[N+](=O)[O-])n3)cc2)C(C)C)cc1` [Example 1-93] is higher in melting point: 135 to 138 °C for the first, 198 to 200 °C for the second.

First: CN(Cc1ccc(CC(C)(C)C)cc1)c1ccc(-c2csc(CN(CC(=O)O)Cc3ccccc3)n2)cc1 [Example 3-27]
Second: CN(CCc1ccc(CC(C)(C)C)cc1)c1ccc(-c2csc(CN(CC(=O)O)Cc3ccccc3)n2)cc1 [Example 3-31]
The melting point of the first is higher: 159 to 160 °C for the first, 133 to 134 °C for the second.

First: CCCC(CCC)c1ccc(Cn2cc(-c3csc(CN4C[C@H](O)C[C@H]4C(=O)O)n3)c3ccccc32)cc1 [Example 1-180]
Second: CCCC(CCC)c1ccc(Cn2c(-c3csc(CN4CCc5ccc(C(=O)O)cc5C4)n3)nc3ccccc32)cc1 [Example 1-169]
The melting point of the first is lower: 105 to 107 °C for the first, 189.2 to 190.3 °C for the second.

First: CN(Cc1ccc(C2CCCCC2)cc1)c1ccc(-c2csc(CN3CCN(CC(=O)O)CC3)n2)cc1 [Example 3-111]
Second: CC(C)CCN(CC(=O)O)Cc1nc(-c2ccc(N(C)Cc3ccc(CC(C)C)cc3)cc2)cs1 [Example 3-93]
The melting point of the first is higher: 190 to 191 °C for the first, 155 to 156 °C for the second.

First: CN(Cc1ccc(CC(C)(C)C)cc1)c1ccc(-c2csc(CN(CC(=O)O)C(=O)Nc3ccccc3)n2)cc1 [Example 3-60]
Second: CN(Cc1ccc(CC(C)(C)C)cc1)c1ccc(-c2csc(CN(C)C(C(=O)O)c3ccccc3)n2)cc1 (stereo not drawn) [Example 3-88]
The melting point of the first is lower: 152 to 153 °C for the first, 171 to 173 °C for the second.

First: CCC(CC)c1ccc(N(Cc2ccc(-c3csc(CN4Cc5ccccc5CC4C(=O)O)n3)cc2)C(C)C)cc1 (stereo not drawn) [Example 1-32]
Second: CCCC(CCC)c1ccc(CN(C)c2ccc(-c3csc(CN(CC(=O)O)C(=O)c4ccc(C)cc4)n3)cc2)cc1 [Example 3-62]
The melting point of the first is higher: 127.5 °C for the first, 114 to 117 °C for the second.

First: CN(Cc1ccccc1)c1ccc(-c2csc(CN(CC(=O)O)C(=O)Cc3csc4ccccc34)n2)cc1 [Example 3-56]
Second: Cc1ccc(OCc2ccc(C(F)(F)F)cc2)c(-c2csc(CN(CC(=O)O)Cc3ccccc3)n2)c1 [Example 3-8]
The melting point of the first is higher: 186 to 188 °C for the first, 168 to 170 °C for the second.

Compared with `O=C(O)CN(CC1CCCCC1)c1nc(-c2nc3ccc(OCc4ccc(Cl)c(Cl)c4)cc3o2)cs1` [Example 3-110], `CCC(C)(C)c1ccc(OCc2ccc(-c3csc(N(C)Cc4ccc(C(=O)O)cc4)n3)cc2)cc1` [Example 1-38] is lower in melting point: 198 to 200 °C for the first, 155 to 157 °C for the second.

With `CCCC(CCC)c1ccc(OCc2ccc(-c3csc(COc4cncc(C(=O)O)c4)c3)cc2)cc1.O=S(=O)(O)O` [Example 4-48] the melting point was 151 to 155 °C (dec.).
